# Test results reported in patent US10294248B2, “Beta-lactamase inhibitors” (VenatoRx Pharmaceuticals, Inc., priority 2013, dated 2019).
# Columns and labels:
# [1] = system: S. aureus MSSA-7 producing penicillinase PC-1; experiment: Broth microdilution MIC, S. aureus MSSA-7 PC-1; type: cell-based; conditions: fixed 4 μg/mL piperacillin; CAMHB, 16-20 hours at 37° C.
# Method in brief: (§1)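 Strains were grown 3-5 h in cation-adjusted Mueller Hinton broth, then inoculated per CLSI into plates holding compound dilutions (32 to 0.25 μg/ml, 2-fold) plus a β-lactam fixed at 4 μg/ml. Plates were incubated 16-20 h at 37° C before visual MIC reading.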
# [2] = system: E. coli ESBL4 expressing CTX-M-15; experiment: Broth microdilution MIC, E. coli ESBL4 CTX-M-15; type: cell-based; conditions: fixed 4 μg/mL ceftazidime; CAMHB, 16-20 hours at 37° C.
# Method in brief: as §1
# [3] = system: K. pneumoniae A-1797 expressing KPC-2 and VIM-4; experiment: Broth microdilution MIC, K. pneumoniae A-1797 KPC-2/VIM-4; type: cell-based; conditions: fixed 4 μg/mL meropenem; CAMHB, 16-20 hours at 37° C.
# Method in brief: as §1
# [4] = target: T1, p99 AmpC β-lactamase (Class C) (Enterobacter cloacae, UniProt P05364); experiment: β-Lactamase inhibition, p99 AmpC; type: biochemical
# T1 construct: made in house; host or cells: E. coli BL21(DE3)
# T1 sequence (P05364 21-381): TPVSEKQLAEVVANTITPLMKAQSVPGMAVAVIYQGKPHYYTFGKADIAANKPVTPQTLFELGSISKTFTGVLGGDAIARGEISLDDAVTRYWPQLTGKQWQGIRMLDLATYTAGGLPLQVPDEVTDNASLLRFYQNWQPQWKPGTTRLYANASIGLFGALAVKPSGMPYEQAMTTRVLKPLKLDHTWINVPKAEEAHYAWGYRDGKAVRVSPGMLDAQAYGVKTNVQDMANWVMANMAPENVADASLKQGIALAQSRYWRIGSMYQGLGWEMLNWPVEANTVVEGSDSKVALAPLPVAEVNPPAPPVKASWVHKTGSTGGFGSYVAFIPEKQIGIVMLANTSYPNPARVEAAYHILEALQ
# [5] = target: T2, SHV-5 β-lactamase (Class A ESBL) (Klebsiella pneumoniae, UniProt P0A3M1); experiment: β-Lactamase inhibition, SHV-5; type: biochemical
# T2 construct: made in house; host or cells: E. coli BL21(DE3)
# T2 sequence (P0A3M1 22-286): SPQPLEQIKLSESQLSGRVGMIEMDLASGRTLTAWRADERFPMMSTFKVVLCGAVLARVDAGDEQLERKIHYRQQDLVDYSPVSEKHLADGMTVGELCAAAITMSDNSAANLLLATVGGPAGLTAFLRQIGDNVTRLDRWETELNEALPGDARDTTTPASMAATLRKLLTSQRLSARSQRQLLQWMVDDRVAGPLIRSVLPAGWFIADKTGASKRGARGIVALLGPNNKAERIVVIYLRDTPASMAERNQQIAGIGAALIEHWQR
# Method in brief: (§2)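 IC50 is the inhibitor level cutting initial substrate hydrolysis rate by 50% relative to no-inhibitor controls, after 15 min enzyme–inhibitor preincubation at 37 °C. KPC-2 read with imipenem at 300 nm, SHV-5 with cefotaxime at 260 nm; enzymes were untagged, E. coli-expressed, chromatographically purified.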
# [6] = target: T3, OXA-1 β-lactamase (Class D oxacillinase) (Escherichia coli, UniProt P13661); experiment: β-Lactamase inhibition, OXA-1; type: biochemical; conditions: nitrocefin 100 μM, 486 nm; 15 min preincubation at 37° C., PBS pH 7.4
# T3 construct: made in house; host or cells: E. coli BL21(DE3)
# T3 sequence (P13661 26-276): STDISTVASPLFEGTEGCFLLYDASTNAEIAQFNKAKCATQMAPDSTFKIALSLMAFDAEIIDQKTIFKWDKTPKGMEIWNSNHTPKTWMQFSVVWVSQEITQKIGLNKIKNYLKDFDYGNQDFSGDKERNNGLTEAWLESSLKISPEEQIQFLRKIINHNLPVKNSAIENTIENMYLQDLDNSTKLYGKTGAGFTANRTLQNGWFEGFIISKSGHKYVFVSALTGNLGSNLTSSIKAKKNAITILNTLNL
# Method in brief: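 Compounds are mixed with purified, untagged recombinant β-lactamase and held 15 min at 37 °C. Substrate is then added: nitrocefin (100 μM final) for OXA-1, imipenem for KPC-2, cefotaxime for SHV-5. Absorbance is followed immediately, and percent inhibition per concentration gives the IC50.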
# [7] = system: P. aeruginosa Ps296 expressing VIM-2; experiment: Broth microdilution MIC, P. aeruginosa Ps296 VIM-2; type: cell-based; conditions: fixed 4 μg/mL meropenem; CAMHB, 16-20 hours at 37° C.
# Method in brief: as §1
# [8] = target: T4, KPC-2 β-lactamase (Class A carbapenemase) (Klebsiella pneumoniae, UniProt Q9F663); experiment: β-Lactamase inhibition, KPC-2; type: biochemical; conditions: imipenem substrate, 300 nm; 15 min preincubation at 37° C., PBS pH 7.4
# T4 construct: made in house; host or cells: E. coli BL21(DE3)
# T4 sequence (Q9F663 25-293, looked up): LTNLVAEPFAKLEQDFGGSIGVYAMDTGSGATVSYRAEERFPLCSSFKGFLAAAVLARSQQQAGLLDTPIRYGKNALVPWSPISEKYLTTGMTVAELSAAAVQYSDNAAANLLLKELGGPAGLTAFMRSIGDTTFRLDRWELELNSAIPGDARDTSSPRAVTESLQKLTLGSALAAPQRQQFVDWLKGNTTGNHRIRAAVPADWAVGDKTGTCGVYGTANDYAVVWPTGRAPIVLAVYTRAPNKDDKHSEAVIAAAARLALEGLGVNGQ
# Method in brief: as §2
# [9] = system: E. cloacae 144200 expressing Class C P99 AmpC; experiment: Broth microdilution MIC, E. cloacae 144200 p99 AmpC; type: cell-based; conditions: fixed 4 μg/mL ceftazidime; CAMHB, 16-20 hours at 37° C.
# Method in brief: as §1
# [10] = target: T5, VIM-2 metallo-β-lactamase (Class B) (Pseudomonas aeruginosa, UniProt Q9K2N0); experiment: β-Lactamase inhibition, VIM-2; type: biochemical; conditions: nitrocefin 100 μM, 486 nm; 15 min preincubation at 37° C., PBS pH 7.4
# T5 construct: made in house; host or cells: E. coli BL21(DE3)
# Method in brief: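 First, VIM-2 purified by repeated anion exchange at pH 7.5 is mixed with inhibitor and held 15 min at 37 °C. Next, nitrocefin (final 100 μM) is dispensed and absorbance at 486 nm monitored immediately for 10 min. Rates versus uninhibited controls give IC50.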
# [11] = system: K. pneumoniae 156319 expressing KPC-3; experiment: Broth microdilution MIC, K. pneumoniae 156319 KPC-3; type: cell-based; conditions: fixed 4 μg/mL meropenem; CAMHB, 16-20 hours at 37° C.
# Method in brief: as §1
Structure (SMILES),"MIC of example compound in presence of fixed β-lactam: Fixed Pip, S. aureus MSSA-7 PC-1 [1]","MIC of example compound in presence of fixed β-lactam: Fixed CAZ, E. coli ESBL4 CTX-M-15 [2]","MIC of example compound in presence of fixed β-lactam: Fixed Mero, K. P. A-1797 KPC-2 VIM-4 [3]",IC50 [4],IC50 [5],IC50 [6],"MIC of example compound in presence of fixed β-lactam: Fixed Mero, P. aerug. Ps296 VIM-2 [7]",IC50 [8],"MIC of example compound in presence of fixed β-lactam: Fixed CAZ, E. cl. 144200 p99 AmpC [9]",IC50 [10],"MIC of example compound in presence of fixed β-lactam: Fixed Mero, K. P. 156319 KPC-3 [11]"
"CN(C)c1ccc(NC(=O)N2CC(C(=O)N[C@H]3Cc4cccc(C(=O)O)c4OB3O)C2)cc1 [Example 47, (R)-3-(1-(4-(dimethylamino)phenylcarbamoyl)azetidine-3-carboxamido)-2-hydroxy-3,4-dihydro-2H-benzo[e][1,2]oxaborinine-8-carboxylic acid]",B (the MIC in the presence of between 8 and 32 μg/mL of a β-lactamase inhibitor),C (the MIC in the presence of <4 μg/mL of a β-lactamase inhibitor),B (the MIC in the presence of between 8 and 32 μg/mL of a β-lactamase inhibitor),< 100 nM,< 100 nM,100 to 1000 nM,C (the MIC in the presence of <4 μg/mL of a β-lactamase inhibitor),< 100 nM,C (the MIC in the presence of <4 μg/mL of a β-lactamase inhibitor),0.1 to 1 µM,C (the MIC in the presence of <4 μg/mL of a β-lactamase inhibitor)
"O=C(CN1CCCNCC1)N[C@H]1Cc2cccc(C(=O)O)c2OB1O [Example 13, 3-(2-[1,4]Diazepan-1-yl-acetylamino)-2-hydroxy-3,4-dihydro-2H-benzo[e][1,2]oxaborinine-8-carboxylic acid]",C (the MIC in the presence of <4 μg/mL of a β-lactamase inhibitor),C (the MIC in the presence of <4 μg/mL of a β-lactamase inhibitor),B (the MIC in the presence of between 8 and 32 μg/mL of a β-lactamase inhibitor),< 100 nM,100 to 1000 nM,100 to 1000 nM,B (the MIC in the presence of between 8 and 32 μg/mL of a β-lactamase inhibitor),1000 to 10000 nM,C (the MIC in the presence of <4 μg/mL of a β-lactamase inhibitor),10 to 100 µM,C (the MIC in the presence of <4 μg/mL of a β-lactamase inhibitor)
"O=C(CCN1CCNCC1)N[C@H]1Cc2cccc(C(=O)O)c2OB1O [Example 23, 2-Hydroxy-3-(3-piperazin-1-yl-propionylamino)-3,4-dihydro-2H-benzo[e][1,2]oxaborinine-8-carboxylic acid]",C (the MIC in the presence of <4 μg/mL of a β-lactamase inhibitor),C (the MIC in the presence of <4 μg/mL of a β-lactamase inhibitor),B (the MIC in the presence of between 8 and 32 μg/mL of a β-lactamase inhibitor),< 100 nM,< 100 nM,< 100 nM,B (the MIC in the presence of between 8 and 32 μg/mL of a β-lactamase inhibitor),< 100 nM,C (the MIC in the presence of <4 μg/mL of a β-lactamase inhibitor),1 to 10 µM,C (the MIC in the presence of <4 μg/mL of a β-lactamase inhibitor)
